In patent US4939142A, “Substituted styrene derivatives” (priority 1989, dated 1990):

Assays:
tetrabenazine ptosis = assay: Tetrabenazin ptosis antagonism (Hoffmeister et al.); type: in vivo; details: Table III; for ED50: Mus musculus, oral, 30 min before tetrabenazin 50 mg/kg i.p.; for Therapeutical index: tetrabenazin ptosis, LD50/ED50
Protocol: The test is carried out by the method of Hoffmeister et al. adapted to mice. Groups consisting of 10-20 animals are treated orally with each dose of the test compound. The control group is treated orally with the carrier. Thirty minutes later a 50 mg/kg i.p. tetrabenazine dose is administered, whereupon after 30, 60, 90 and 120 minutes the animals with closed eye-lids are counted in each group.
On the basis of all measurements an average ptosis is calculated for each group and expressed as the percentile deviation (inhibition) from the control group. On the basis of the data thus obtained ED50 values are calculated.
[Hoffmeister, F., Wuttke, W., and Kroneberg, G.: Arzneim. Forsch. (Drug.

in vivo = details: mouse, in vivo, po
Protocol: (§1) Male and female white mice (CFLP strain, 18-22 g) are used, 10 animals per dose. The test compounds are administered orally in a volume of 20 ml/kg. After administration the mice are observed for a period of 7 days. The animals are kept in plastic boxes, on wood litter, at room temperature. The animals receive standard mouse fodder and tap water ad libitum.

[1] = tested on: nicotine spasm and lethality; assay: Inhibition of nicotine spasm and lethality on mice (Stone); type: in vivo; details: Table VIII; for ED50: Mus musculus, oral, 1 h before nicotine 1.4 mg/kg i.v.; for Therapeutical index: nicotine spasm and lethality, LD50/ED50
Excerpt: [Stone, C. C., Mecklenburg, K. L., Torchiana, M. L.: Arch. Int.

pentetrazole spasm = assay: Inhibition of pentetrazol spasm on mice; details: for ED50: Mus musculus, po; for Therapeutical index: Table V, pentetrazole spasm, LD50/ED50
Protocol: The modified method of Benziger and Hane is used on white mice. Groups consisting of 6 animals are used for each dose. […] The test compounds are administered orally one hour before the treatment with pentetrazole; in the control group the animals obtain the carrier orally at the same points of time.
The therapeutical index data disclosed in the above Tables are calculated by means of the following equation: [formula]

maximal electroshock = assay: Inhibition of maximal electroshock on mice; details: for ED50: Mus musculus, po; for Therapeutical index: Table VI, maximal electroshock, LD50/ED50
Protocol: The test is carried out on white mice weighing 20-25 g. The animals receive an electric shock through corneal electrodes (50 Hz; 45 mA, 0.4 sec.). A total inhibition of the tonus extensor spasms of the posterior extremities is regarded as the criterium of anticonvulsive effect. The test compound and the carrier, respectively, are administered orally an hour before the electric shock.

hexobarbital narcosis = assay: Hexobarbital narcosis potentiating effect; details: for ED50: Mus musculus, po; for Therapeutical index LD50 /ED50: Table I, hexobarbital narcosis
Protocol: The test is carried out on white mice. Groups consisting of six mice are used for each dose and test compound. The test compound is administered orally and an hour after this treatment narcosis is induced by means of a 40 mg/kg i.v. dose of hexobarbital. The control group receives carrier instead of the test compound.
Those mice are considered to be having a positive reaction which show a narcosis time at least 2.5 times longer than that of the control group. The ED50 values thus transformed are calculated.

motility = assay: animal or person; type: in vivo; details: for ED50: Mus musculus, po; for Therapeutical index: Table II, motility inhibition, LD50/ED50
Protocol: The test is accomplished according to the method of Borsy et al. in a 10-channel Dews system equipment, whereby 3 mice are used per channel. The test compound or the carrier, respectively, is administered orally, and one hour after the said treatment the animals are placed into the apparatus and the number of the interruptions of infrared radiation is registered for 30 minutes.
The results are summarized in Table II and documented by means of suitable statistics for each experiment.
[J. Borsy, E. Csanyi, I. Lazar: Arch. Int. Pharmacodyn. 124, 1 (1960)].

mice = assay: in vivo; details: 10080 min
Protocol: as §1

[2] = tested on: experimental coronary insufficiency induced by vasopressine; assay: Antianginal effect on rats, vasopressine-induced coronary insufficiency, T-wave (Nieschultz); type: in vivo, male rats; details: Table IX, dose 2 mg/kg, vasopressine 1 IU/kg i.v.
Protocol: The test is carried out on male rats weighing 180-220 g. The animals are narcotized with the aid of chloralose urethane (70-700 mg/kg i.p.). ECG is registered by means of needle electrodes in standard II output. Antianginal effect is tested according to the method of Nieschultz. Experimental coronary insufficiency is induced by administering vasopressine (1 IU/kg i.v.) on 10-12 animals for each dose. The magnitude of the T-wave before and after the administration of vasopressine is measured in the treated and control groups.

ulcus secretion = assay: animal or person; type: in vivo; details: for ED50: Rattus norvegicus, po, 5 h; for Therapeutical index: Table X, ulcus secretion, LD50/ED50
Protocol: The test is carried out according to the method of Nakamura on rats (Wistar strain) weighing 150-230 g and fasted for 48 hours. Each animal group consists of 4 male and 4 female rats. On the day of the experiment the pylorus of the animals is bound and the corresponding dose of the test compound is administered orally immidiately after operation. The animals are killed with ether 5 hours after the operation, their stomach is removed, cut along the large curve and placed on plastic plates.

yohimbin toxicity = assay: animal or person
Protocol: The test is carried out according to the method of Quinton. Groups consisting of 10 mice are used for each dose. The animal groups are treated with the suitable doses of the test compounds while the control group is treated with a carrier. An hour after the treatment a sublethal dose of yohimbin is administered intraperitoneally in a volume of 20 ml/kg. The perished animals are counted after 1 and 24 hours.

acetic acid writhing = assay: Acetic acid "writhing test" on mice (Newbould); type: in vivo, white mice; details: Table VII; for ED50: Mus musculus, oral, 1 h before acetic acid i.p., read-out: ED50; for Therapeutical index: acetic acid writhing, LD50/ED50
Protocol: In the period between the 5th and 10th minutes following the administration of acetic acid the number of the characteristic "writhing" responses is counted for each animal and the "total writhing number" (within 5 minutes) is expressed as the percentage of the value obtained for the control animals. The mice are treated with the test compound and the carrier, respectively, orally 1 hour before the administration of acetic acid. 12 animals are used per dose.
[Newbould, B. D.: Brit.

| SMILES | LD50 at 168 h (in vivo) [mg/kg] | ED50 (pentetrazole spasm) [mg/kg] | Therapeutical index (pentetrazole spasm) | ED50 (motility) [mg/kg] | Therapeutical index (motility) | Inhibition % [2] [%] | ED50 (ulcus secretion) [mg/kg] | Therapeutical index (ulcus secretion) | also measured |
| --- | --- | --- | --- | --- | --- | --- | --- | --- | --- |
| CC(CO/N=C1C=C(/C=C/c2ccc(Cl)cc2)CC(C)(C)C/1)CN(C)C (racemic) [Example 18, D,L-5,5-Dimethyl-3-(E)-[(4'-chloro-phenyl)-vinyl]-1-(E)-(3"-dimethylamino-2"-methyl-propoxyimino)-2-cyclohexene] | 2000 | 190 | 10.5 |  |  |  |  |  | ED50 (tetrabenazine ptosis): 40 mg/kg; Therapeutical index (tetrabenazine ptosis): 50.0; ED50 [1]: 88 mg/kg; Therapeutical index [1]: 22.7 |
| CC(CO/N=C1C=C(/C=C/c2ccccc2)CC(C)(C)C/1)CN(C)C (racemic) [Example 13, D,L-5,5-Dimethyl-3-(E)-phenyl-vinyl-1-(E)-(3'-dimethylamino-2'-methyl-propoxyimino)-2-cyclohexene] | 1800 |  |  | 100 | 18.0 |  |  |  | ED50 (maximal electroshock): 64 mg/kg; Therapeutical index (maximal electroshock): 28.1; ED50 (hexobarbital narcosis): 9 mg/kg; Therapeutical index LD50 /ED50 (hexobarbital narcosis): 200.0 |
| COc1cccc(/C=C/C2=CC(=N/OCCCN3CCOCC3)/CC(C)(C)C2)c1 [Example 30, 5,5-Dimethyl-3-(E)-[(3'-methoxy-phenyl)-vinyl]-1-(E)-(N-morpholino-propoxyimino)-2-cyclohexene] | > 2000 |  |  | ~200 | > 10.0 | -45 | ~150 | above 13.3 | LD50 (mice; Table I, oral, mice): > 2000 mg/kg; LD50 (mice; Table II, oral, mice): > 2000 mg/kg; ED50 (hexobarbital narcosis): 21.5 mg/kg; Therapeutical index LD50 /ED50 (hexobarbital narcosis): > 93.0 |
| CC1(C)CC(/C=C/c2cccc(Cl)c2)=CC(=N/OCCN2CCOCC2)/C1 [Example 28, 5,5-Dimethyl-3-(E)-[(3'-chloro-phenyl)-vinyl]-1-(E)-(N-morpholino-ethoxyimino)-2-cyclohexene] |  |  |  |  |  | -31 |  |  |  |
| CN(C)CCC=C1c2ccccc2CCc2ccccc21 [Amitriptylin, reference compound] |  |  |  |  |  |  |  |  | ED50 (tetrabenazine ptosis): 12 mg/kg; ED50 (yohimbin toxicity; Mus musculus): 12.5 mg/kg; Therapeutical index (yohimbin toxicity; Table IV, yohimbin toxicity, LD50/ED50): 18 |
| COc1cccc(/C=C/C2=CC(=N/OCCN3CCOCC3)/CC(C)(C)C2)c1 [Example 29, 5,5-Dimethyl-3-(E)-[(3'-methoxy-phenyl)-vinyl]-1-(E)-(N-morpholino-ethoxyimino)-2-cyclohexene] | > 2000 |  |  | ~200 | > 10.0 |  | ~200 | above 10.0 | LD50 (mice; Table I, oral, mice): > 2000 mg/kg; LD50 (mice; Table II, oral, mice): > 2000 mg/kg; LD50 (mice; Table X): above 2000 mg/kg; ED50 (hexobarbital narcosis): 21.5 mg/kg; Therapeutical index LD50 /ED50 (hexobarbital narcosis): > 93.0; ED50 (acetic acid writhing): ~160 mg/kg; Therapeutical index (acetic acid writhing): > 12.5 |
| COc1ccccc1/C=C/C1=CC(=N/OCCN2CCCCC2)/CC(C)(C)C1 [Example 33, 5,5-Dimethyl-3-(E)-[(2'-methoxy-phenyl)-vinyl]-1-(E)-(N-piperidinyl-ethoxyimino)-cyclohexene] | > 1000 | 63 | > 15.9 |  |  | -47.1 |  |  |  |
| CC1(C)CC(/C=C/c2cccc(Cl)c2)=CC(=N/OCCCN2CCOCC2)/C1 [Example 34, 5,5-Dimethyl-3-(E)-[(3'-chloro-phenyl)-vinyl]-1-(E)-(N-morpholino-propoxyimino)-2-cyclohexene] | > 2000 | 180 | > 11.0 |  |  |  | ~100 | above 20.0 | LD50 (mice; Table VII, oral, mice): > 2000 mg/kg; LD50 (mice; Table X): above 2000 mg/kg; ED50 (acetic acid writhing): ~200 mg/kg; Therapeutical index (acetic acid writhing): > 10.0 |
| CN(C)CCCO/N=C1C=C(/C=C/c2ccccc2)CC(C)(C)C/1 [Example 1, 5,5-Dimethyl-3-(E)-phenyl-vinyl-1-(E)-(3'-dimethylamino-propoxyimino)-2-cyclohexene] | 1300 | 56 | 23.2 | 60 | 22.0 |  |  |  | ED50 [1]: 12 mg/kg; Therapeutical index [1]: 108.0; ED50 (maximal electroshock): 110 mg/kg; Therapeutical index (maximal electroshock): 11.8; ED50 (acetic acid writhing): 160 mg/kg; Therapeutical index (acetic acid writhing): 8.1 |
| CC1(C)CC(/C=C/c2ccccc2Cl)=CC(=N/OCCN2CCCCC2)/C1 [Example 26, 5,5-Dimethyl-3-(E)-[(2'-chloro-phenyl)-vinyl]-1-(E)-(N-piperdinyl-ethoxyimino)-2-cyclohexene] | > 1000 |  |  | ~200 | > 5.0 |  | ~50 | above 20 | LD50 (mice; Table II, oral, mice): > 1000 mg/kg |
| CC1(C)CC(/C=C/c2ccc(Cl)cc2)=CC(=N/OCCCN2CCN(Cc3ccccc3)CC2)/C1 [Example 20, 5,5-Dimethyl-3-(E)-[(4'-chloro-phenyl)-vinyl]-1-(E)-(4"-phenyl-methyl-1"-piperazinyl-propoxyimino)-2-cyclohexene] | 2000 |  |  |  |  | -54.4 |  |  | ED50 (tetrabenazine ptosis): 8.5 mg/kg; Therapeutical index (tetrabenazine ptosis): 235.3 |
| CN(C)CCO/N=C1C=C(/C=C/c2ccccc2)CC(C)(C)C/1 [Example 3, 5,5-Dimethyl-3-(E)-phenyl-vinyl-1-(E)-(2'-dimethylamino-ethoxyimino)-2-cyclohexene] | 1000 | 68 | 14.7 | 58 | 17.0 |  |  |  | ED50 [1]: 33 mg/kg; Therapeutical index [1]: 30.3; ED50 (maximal electroshock): 88 mg/kg; Therapeutical index (maximal electroshock): 11.4 |
